Reference: ChEMBL document CHEMBL1146283, “Development of potent, orally active 1-substituted-3,4-dihydro-2-quinolone glycogen phosphorylase inhibitors” (Bioorg Med Chem Lett, 2007)

What was measured:
in vitro [1] = conditions: human, Caco-2
in vitro [2] = conditions: human, Caco-2; remark: listed apart in the source
[3] = Half life in AP Wistar rat at 2.1 to 4.0 mg/kg, iv and 8.1 to 8.9 mg/kg, po; type: ADME, organism-based; conditions: in vivo
[4] = Clearance in AP Wistar rat at 2.1 to 4.0 mg/kg, iv and 8.1 to 8.9 mg/kg, po; type: ADME, organism-based; conditions: in vivo
[5] = Bioavailability in AP Wistar rat at 2.1 to 4.0 mg/kg, iv and 8.1 to 8.9 mg/kg, po; type: ADME, organism-based; conditions: in vivo, at 8.1 to 8.9 mg/kg
[6] = Volume of distribution at steady state in AP Wistar rat at 2.1 to 4.0 mg/kg, iv and 8.1 to 8.9 mg/kg, po; type: ADME, organism-based; conditions: in vivo, read-out: Vdss

| SMILES | Papp A→B (in vitro [1]) [×10⁻⁶ cm/s] | Papp B→A (in vitro [2]) [×10⁻⁶ cm/s] | half-life [3] [h] | clearance [4] [mL/min/kg] | bioavailability [5] [%] | Vd [6] [L/kg] |
| --- | --- | --- | --- | --- | --- | --- |
| NC(=O)CN1C(=O)C(NC(=O)c2cc3cc(Cl)sc3[nH]2)Cc2ccccc21 (stereo not given) | – | – | 16 | 1.2 | 35 | 1.4 |
| O=C(NC1Cc2ccccc2N(CC(CO)CO)C1=O)c1cc2cc(Cl)sc2[nH]1 (racemic) | – | – | 13 | 2.5 | 41 | 2.2 |

Second part, the molecule after the results:

| Papp A→B (in vitro [1]) [×10⁻⁶ cm/s] | Papp B→A (in vitro [2]) [×10⁻⁶ cm/s] | half-life [3] [h] | clearance [4] [mL/min/kg] | bioavailability [5] [%] | Vd [6] [L/kg] | SMILES |
| --- | --- | --- | --- | --- | --- | --- |
| 0.3 | 11 | – | – | – | – | O=C(O)CN1C(=O)C(NC(=O)c2cc3sc(Cl)c(Cl)c3[nH]2)Cc2ccccc21 (stereo not given) |
| – | – | 5.4 | 5.1 | 12 | 1.4 | O=C(CN1C(=O)C(NC(=O)c2cc3cc(Cl)sc3[nH]2)Cc2ccccc21)NCCO (stereo not given) |
| 29 | 29 | 11 | 2.4 | > 100 | 1.9 | O=C(NC1Cc2ccccc2N(C[C@@H](O)CO)C1=O)c1cc2cc(Cl)sc2[nH]1 (mixture of isomers) |
